For two molecules, IC50 results are on record in BindingDB's records for doi:10.1021/jm100478y (University of North Carolina at Chapel Hill, 2010).

The assay concerns the target T1, Histone-lysine N-methyltransferase EHMT2 (Homo sapiens, UniProt Q96KQ7).
T1 sequence (Q96KQ7 whole entry): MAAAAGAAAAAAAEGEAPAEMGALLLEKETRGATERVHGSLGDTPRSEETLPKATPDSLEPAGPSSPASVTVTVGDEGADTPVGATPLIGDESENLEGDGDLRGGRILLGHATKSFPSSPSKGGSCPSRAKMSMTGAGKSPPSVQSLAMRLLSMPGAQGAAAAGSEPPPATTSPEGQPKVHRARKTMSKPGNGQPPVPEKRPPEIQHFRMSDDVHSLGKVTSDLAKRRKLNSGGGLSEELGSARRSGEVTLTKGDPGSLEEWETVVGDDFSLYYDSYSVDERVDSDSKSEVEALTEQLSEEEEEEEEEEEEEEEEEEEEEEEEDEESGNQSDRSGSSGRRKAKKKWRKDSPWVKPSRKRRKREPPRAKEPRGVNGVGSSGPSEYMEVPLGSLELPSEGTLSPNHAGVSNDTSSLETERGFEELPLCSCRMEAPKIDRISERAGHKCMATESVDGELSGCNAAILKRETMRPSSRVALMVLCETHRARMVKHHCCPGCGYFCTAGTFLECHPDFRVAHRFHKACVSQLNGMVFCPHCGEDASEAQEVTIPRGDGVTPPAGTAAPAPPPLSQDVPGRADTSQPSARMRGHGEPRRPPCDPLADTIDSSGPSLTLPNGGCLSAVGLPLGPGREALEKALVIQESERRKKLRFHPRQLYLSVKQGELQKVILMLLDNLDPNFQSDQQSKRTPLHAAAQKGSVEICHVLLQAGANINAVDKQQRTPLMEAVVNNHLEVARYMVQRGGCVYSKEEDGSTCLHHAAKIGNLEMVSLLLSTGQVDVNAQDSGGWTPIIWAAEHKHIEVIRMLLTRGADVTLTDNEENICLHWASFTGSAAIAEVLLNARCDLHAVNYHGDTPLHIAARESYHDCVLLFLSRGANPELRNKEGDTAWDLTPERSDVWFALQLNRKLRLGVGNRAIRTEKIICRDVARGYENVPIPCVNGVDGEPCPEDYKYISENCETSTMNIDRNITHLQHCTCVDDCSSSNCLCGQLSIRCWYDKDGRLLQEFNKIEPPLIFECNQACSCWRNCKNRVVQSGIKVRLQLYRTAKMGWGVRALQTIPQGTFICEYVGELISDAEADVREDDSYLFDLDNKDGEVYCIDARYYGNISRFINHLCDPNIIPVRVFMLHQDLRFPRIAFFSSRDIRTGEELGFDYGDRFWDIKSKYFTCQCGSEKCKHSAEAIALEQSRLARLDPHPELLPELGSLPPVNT
Put plainly: Inhibition of methyl transferase activity of G9a assessed as inhibition of H3K9 methylation by chemiluminescence based oxygen tunneling assay.

Bounds are passed on as bounds.

As to `COc1cc2nc(N3CCCN(C)CC3)nc(NC3CCNCC3)c2cc1OC` [6,7-Dimethoxy-2-(4-methyl-1,4-diazepan-1-yl)-N-(piperidin-4-yl)quinazolin-4-amine], the half-inhibitory concentration (IC50) is above 10 µM.

For `COc1cc2nc(N3CCCN(C)CC3)nc(NC3CCOCC3)c2cc1OC` [6,7-dimethoxy-2-(4-methyl-1,4-diazepan-1-yl)-N-(tetrahydro-2H-pyran-4-yl)quinazolin-4-amine], the IC50 is above 10 µM.

Usually IC50 stands for the concentration that gives 50% inhibition.
